Experiments:
[1] = target: T1, NR1A/NR2B NMDA receptor subtype (Rattus norvegicus, UniProt P35439+Q00960); assay: [3H]Ifenprodil binding assay (IFPNR), rat forebrain membranes; details: Table 1, 4 nM [3H]-ifenprodil, read-out: IFPNR (IC50 μM)
T1 construct: buffy coat membrane fraction was prepared from frozen adult rat forebrains; tissue Zivic-Miller Laboratories, Inc; host or cells: adult rat forebrain membranes
Procedure: b. [^3H]Ifenprodil Binding Assay (IFPNR) Protocol:
Ifenprodil, [phenyl-^3H]-(specific activity, 66.2 Ci/mmol) was purchased from Dupont NEN Research Products (Boston, Mass.). Ifenprodil tartrate was purchased from Research Biochemicals International (Natick, Mass.). HEPES, glutamate and glycine were purchased from Sigma Chemical Co. (St. Louis, Mo.).
All buffers and reagents used in assay incubations or to dissolve drugs were prepared using water purified through a Milli-Q reverse osmosis system (Millipore Corp., Bedford, Mass.) and treated with UV emissions. Prior to use in the assays buffers were further filtered through a sterile Coming filtration unit (Coming Glass Works, Coming, N.Y.) containing a 0.2 micron filter. Buffer used to rinse the membranes on the assay filters was prepared with purified water, but was not refiltered and was stored no longer than 5 days. Stock solutions of the drugs (usually 10 mM) were dissolved in 20 mM HEPES-KOH buffer pH 7.4 (assay buffer) with the addition of 1 to 5 μL of glacial AcOH, if needed to keep them in solution. Eliprodil was used as the reference NMDA antagonist. A stock solution of eliprodil was prepared, and was buffered with the addition of 10% DMSO. All subsequent dilutions from the stock solution were made in buffer.
An extensively washed buffy coat membrane fraction was prepared from frozen adult rat forebrains (Zivic-Miller Laboratories, Inc., Zelienople, Pa.) as described by Coughenour L. L.; Cordon, J. J., J. Pharmacol. Exp. Ther., 1997;280:584-592, and stored at −80° C. On the day of the assay, pellets of the frozen membrane fractions were resuspended in 35 mL of assay buffer at pH 7.4 using a POLYTRON (Kinematica A. G. Company, Littau, Switzerland) mixer at setting 6. After incubation at 37° C. for 30 minutes in a shaking water bath, the homogenate was centrifuged 40,000×g for 10 minutes at 4° C. The pellets were resuspended in fresh buffer and centrifuged 3 more times before final suspension for use in the assay.
(iii) [^3H]Ifenprodil Binding protocol:
Triplicate incubations were carried out in a volume of 0.5 mL in 1.3 mL polypropylene tubes (Marsh Biomedical Products Inc, Rochester, N.Y.) for 2 hours at room temperature. Incubations contained invention compounds, membranes (100-200 μg protein) and 4 nM [^3H]-ifenprodil in 20 mM HEPES-KOH buffer, pH 7.4 (assay buffer). Assays were started by addition of the membranes. Bound radioligand was separated by filtration under reduced pressure using a TOMTEC Mach II, 96-well cell harvester (Tomtec Inc, Orange, Conn.). Filtration was through Whatman GF/B glass fiber filters (Whatman Ltd., Maidstone, England), which had been soaked for at least 15 minutes in 0.3% polyethylenimine and allowed to air dry. The filters were rinsed with 3 mL of ice cold assay buffer within 6 seconds. Air was allowed to pass through the filters for an additional 10 seconds to remove residual moisture. The filter mat was supported on a cold (−20° C.) TEFLON (E. I. Du Pont de Nemours and Company, Wilmington, Del.) coated support, and filters from individual wells were separated and placed in Mini Poly-Q vials (Becklman Instruments Inc, Fullerton, Calif.) and filled with 4 mL of scintillation cocktail (Beckman Ready Protein^+). Radioactivity retained on the filter was determined by liquid scintillation spectrophotometry. Nonspecific binding was defined as the binding in the presence of […] ifenprodil. Ninety percent of the total binding of ifenprodil was specific binding at the NR1A/NR2B NMDA receptor subtype active site (as opposed to binding at a remote site).
Binding curves were statistically analyzed for a best 1- or 2-site competition fit using GRAPHPAD PRISM software (GraphPad Software Inc, San Diego, Calif.), a computer program used to analyze and graph scientific data. The normalized data was fitted by nonweighted nonlinear regression to either [formula]
Control data was entered as 100%, and no parameters were constrained. […]

[2] = tested on: 6-Hydroxydopamine-lesioned rats; assay: 6-OHDA lesioned rat assay (potentiation of L-DOPA-induced contraversive rotation); format: in vivo; details: Table 1; po; statistically significant increase in contraversive rotations versus L-DOPA alone (L-DOPA methyl ester 10 mg/kg SC)
Text: b. The 6-OHDA Lesioned Rat Assay (6-OHDA):
The 6-OHDA model is used to test compounds of the invention for anti-Parkinsonism activity.
(i) 6-OHDA lesioned rat assay protocol:
6-Hydroxydopamine-lesioned rats were used (see Ungerstedt U, Arbuthnott G W: “Quantitative recording of rotational behavior in rats after 6-hydroxy-dopamine lesions of the nigrostraiatal dopamine system”, Brain Res., 1971;24(3):485-493). Adult male Sprague-Dawley rats were anesthetized with chloral hydrate, and unilateral lesions of the nigrostriatal dopamine system were accomplished by infusion of 8 μg of 6-hydroxydopamine HBr (6-OHDA) into the right medial forebrain bundle. Rats were pretreated 30 minutes before surgery with desipramine HCl 25 mg/kg intraperitoneally (IP) to protect noradrenergic neurons, and pargyline 25 mg/kg IP to potentiate the effects of 6-OHDA. A minimum of 3 weeks after surgery, the rotational behavior induced by apomorphine HCL 50 μg/kg administered subcutaneously (SC) was assessed.
(ii) Measurement of animal behavior:
Rotational behavior was measured using an automatic rotometer system (Rotorat Rotational Activity System, MED Associates, Georgia, Vt.). Antiparkinsonian activity was assessed as the ability of the invention compounds to potentiate the contraversive rotation induced by L-DOPA methyl ester, dosed at 10 mg/kg SC, over a 6-hour period. […]

T1 sequence (Q00960 27-1482, other chains not shown): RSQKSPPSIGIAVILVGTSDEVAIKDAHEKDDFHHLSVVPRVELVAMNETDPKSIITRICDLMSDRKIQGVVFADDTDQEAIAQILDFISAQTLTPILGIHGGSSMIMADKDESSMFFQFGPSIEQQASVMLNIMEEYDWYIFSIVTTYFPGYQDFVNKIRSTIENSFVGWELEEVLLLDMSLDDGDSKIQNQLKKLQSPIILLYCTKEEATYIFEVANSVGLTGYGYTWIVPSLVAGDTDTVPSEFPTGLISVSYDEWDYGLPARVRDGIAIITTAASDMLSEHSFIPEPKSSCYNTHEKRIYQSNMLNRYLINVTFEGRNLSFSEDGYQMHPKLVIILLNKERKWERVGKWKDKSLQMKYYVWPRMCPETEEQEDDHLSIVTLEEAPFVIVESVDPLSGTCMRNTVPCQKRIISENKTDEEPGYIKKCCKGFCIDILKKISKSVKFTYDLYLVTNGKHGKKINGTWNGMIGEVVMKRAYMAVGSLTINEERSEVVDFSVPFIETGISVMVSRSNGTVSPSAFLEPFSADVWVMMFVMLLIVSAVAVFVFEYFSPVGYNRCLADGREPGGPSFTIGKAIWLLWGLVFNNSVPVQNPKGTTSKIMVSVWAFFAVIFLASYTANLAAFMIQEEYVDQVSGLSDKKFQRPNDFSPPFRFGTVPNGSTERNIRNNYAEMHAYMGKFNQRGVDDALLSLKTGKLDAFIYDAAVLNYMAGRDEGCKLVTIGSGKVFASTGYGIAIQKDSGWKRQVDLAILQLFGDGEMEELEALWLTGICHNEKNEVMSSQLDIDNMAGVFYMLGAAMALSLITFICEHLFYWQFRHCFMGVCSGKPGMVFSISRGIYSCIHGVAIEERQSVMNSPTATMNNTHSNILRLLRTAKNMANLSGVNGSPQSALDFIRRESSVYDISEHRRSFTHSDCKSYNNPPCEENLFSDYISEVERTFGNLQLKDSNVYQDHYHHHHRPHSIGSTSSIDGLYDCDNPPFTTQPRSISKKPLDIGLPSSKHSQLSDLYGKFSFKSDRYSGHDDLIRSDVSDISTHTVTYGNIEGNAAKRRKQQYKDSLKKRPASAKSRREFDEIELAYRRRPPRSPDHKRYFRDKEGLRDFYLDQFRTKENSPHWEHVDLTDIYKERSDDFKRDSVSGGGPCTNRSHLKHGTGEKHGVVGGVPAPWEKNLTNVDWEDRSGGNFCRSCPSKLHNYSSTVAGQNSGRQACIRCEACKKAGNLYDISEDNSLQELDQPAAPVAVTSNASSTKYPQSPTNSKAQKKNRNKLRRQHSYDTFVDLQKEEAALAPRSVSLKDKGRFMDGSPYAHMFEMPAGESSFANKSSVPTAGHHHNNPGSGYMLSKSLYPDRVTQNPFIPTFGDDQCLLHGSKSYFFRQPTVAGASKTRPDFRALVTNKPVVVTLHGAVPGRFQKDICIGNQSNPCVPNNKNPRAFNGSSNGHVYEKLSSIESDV

Structure (SMILES)	IC50 [1]	6-OHDA (mg/kg), minimum effective dose (MED) [2]
O=c1[nH]c2ccc(C3=NOC(CN4CCC(Cc5ccc(F)cc5)CC4)C3)cc2o1 (single isomer, unassigned; (-)) [Example 4b, (−)-6-{5-[4-(4-Fluorobenzyl)piperidin-1-ylmethyl]4,5-dihydroisoxazol-3-yl}-3H-benzoxazol-2-one]	0.28 µM	>30 (po) mg/kg
O=c1[nH]c2ccc(C3=NOC(CN4CCC(Cc5ccccc5)CC4)C3)cc2o1 (racemic) [Example 1, 6-[5-(4-Benzylpiperidin-1-ylmethyl)-4,5-dihydroisoxazol-3-yl]-3H-benzoxazol-2-one]	0.033 µM	>10 (po) mg/kg
